The source of these data is patent US20140200210A1, “PHARMACEUTICAL COMPOSITION FOR TREATING PREMATURE EJACULATION AND METHOD FOR TREATING PREMATURE EJACULATION” (CTC BIO, INC., priority 2011, published 2014).

In this assay the test system is male patients suffering from premature ejaculation. The assay can be described thus: Phase 2b clinical study, effect evaluation: intravaginal ejaculation latency time (IELT). It is filed as in vivo, human.

Counter-ions that a name gives are not always drawn.

Text: Male patients suffering from premature ejaculation were subject to the following parallel clinical study (Phase 2b) (randomized, double-blind, placebo-controlled and fixed dose study) for evaluating tolerance and determining a proper therapeutic capacity.
• Subjects who passed screening entered a 4-week run-in period, and were randomized in 1:1:1 ratio of 2 groups with clomipramine and 1 group with placebo and subject to a double blind experiment. […] Each subject visited the hospital after taking the test drugs for 4 weeks by on-demand therapy.
Group 0 was administered with a tablet of 15 mg placebo and a tablet of 30 mg placebo, Group 1 was administered with a tablet of 15 mg clomipramine HCl and a tablet of 30 mg placebo, and Group 2 was administered with a tablet of 30 mg clomipramine HCl and a tablet of 15 mg placebo for 4 weeks on-demand at about 2 hours to 6 hours prior to sexual activity. The tablets were orally taken with a glass of water.
Primary effectiveness evaluation variables in this clinical study include an IELT fold change at visit 3 (measuring between 0 and 4 weeks) relative to baseline values (i.e., IELT fold change=Value of IELT measured at visit 3 (0 to 4 weeks)/Value of IELT measured at baseline) in each of Group 0 (with treatment of placebo), Group 1 (with treatment of 15 mg clomipramine HCl) and Group 2 (with treatment of 30 mg clomipramine HCl). […]
(1) After administering placebo and 15 mg of clomipramine, and placebo and 30 mg of clomipramine for the period of 4 weeks, a change (%) of IELT values between 0 to 4 weeks after administration, relative to before administration, was calculated by the equation [Change (%) of IELT Values=(Value of IELT measured at 0 to 4 weeks−Value of IELT measured at baseline)×100/Value of IELT measured at baseline].
(2) After administering placebo and 15 mg of clomipramine, and placebo and 30 mg of clomipramine for the period of 4 weeks, a mean change of IELT values between 0 to 4 weeks after administration was calculated. […]

On to `CN(C)CCCN1c2ccccc2CCc2ccc(Cl)cc21` [clomipramine, clomipramine hydrochloride], for which the minimum effective dose is, setting by setting: (case of ITT1) 30 mg; (cases of ITT2 and ITT3) 15 mg; (considering overall situations) 15 mg.
